Assay results: PubChem BioAssay (NCI)
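Compound exposure: 48 hours, 5 concentrations, 96-well plates. GI50 marks 50% less growth. TGI: concentration producing complete growth inhibition.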

Legend:
Test in all cases: NCI tumour cell line growth inhibition, 48 h
HCC-2998 colon = tested on: HCC-2998 colon
HOP-62 NSCLC = tested on: HOP-62 NSCLC
HOP-92 NSCLC = tested on: HOP-92 NSCLC
HT29 colon = tested on: HT29 colon
OVCAR-8 ovarian = tested on: OVCAR-8 ovarian
RPMI-8226 leukemia = tested on: RPMI-8226 leukemia
RXF 393 renal = tested on: RXF 393 renal
SW-620 colon = tested on: SW-620 colon
UACC-62 melanoma = tested on: UACC-62 melanoma
PC-3 prostate = tested on: PC-3 prostate

Row | SMILES | TGI (HCC-2998 colon) | TGI (HOP-62 NSCLC) | TGI (HOP-92 NSCLC) | TGI (HT29 colon) | TGI (OVCAR-8 ovarian) | TGI (RPMI-8226 leukemia) | TGI (RXF 393 renal) | TGI (SW-620 colon) | TGI (UACC-62 melanoma) | TGI (PC-3 prostate) | GI50 (HCC-2998 colon) | GI50 (HOP-62 NSCLC) | GI50 (HOP-92 NSCLC) | GI50 (HT29 colon) | GI50 (OVCAR-8 ovarian) | GI50 (RPMI-8226 leukemia) | GI50 (RXF 393 renal) | GI50 (SW-620 colon) | GI50 (UACC-62 melanoma)
1 | NC(=O)C(=O)Cc1nc2ccccc2s1 | > 100 µM | > 100 µM | > 100 µM | > 100 µM | > 100 µM | > 100 µM | > 100 µM | > 100 µM |  |  |  |  |  |  |  |  |  |  | 
2 | Nc1c(-c2nc3ccccc3s2)[n+]([O-])c2ccccc2[n+]1[O-] | > 100 µM | 78.5 µM | 62.3 µM | > 100 µM | > 100 µM | 89.5 µM |  | > 100 µM | > 100 µM |  |  |  |  |  |  |  |  |  | 
3 | O=CC(O)C(O)C(OC1OC(CO)C(O)C(O)C1O)C(O)CO (centres undefined) (tested in a mixture with another compound) |  | > 100 µM | > 100 µM | > 100 µM | > 100 µM | 59.2 µM | > 100 µM | > 100 µM | > 100 µM | > 100 µM |  |  |  |  |  |  |  |  | 
4 | CC1(C)CC(O)CC(C)(C)N1.CC1(C)CC(O)CC(C)(C)N1.CC1(C)CC(O)CC(C)(C)N1.CC1(C)CC(O)CC(C)(C)N1.Cl.[Ti] | > 100 µM | > 100 µM | > 100 µM | > 100 µM | > 100 µM | > 100 µM | > 100 µM | > 100 µM | > 100 µM |  | > 100 µM | > 100 µM | > 100 µM | > 100 µM | > 100 µM | > 100 µM | > 100 µM | > 100 µM | > 100 µM
5 | O=C(O)C1=C(C(=O)O)Oc2ccccc2O1 | > 100 µM | > 100 µM | > 100 µM | > 100 µM | > 100 µM |  | > 100 µM | > 100 µM | > 100 µM |  |  |  |  |  |  |  |  |  | 
6 | CCOC(=O)COc1cccc2occc(=O)c12 | > 100 µM | > 100 µM | > 100 µM | > 100 µM | > 100 µM | > 100 µM |  | > 100 µM | > 100 µM |  |  |  |  |  |  |  |  |  | 
7 | CC(C)(C)c1cc(C(OCCl)(C(F)(F)F)C(F)(F)F)c2c(c1)C(C(F)(F)F)(C(F)(F)F)OC21c2ccccc2C(=O)c2ccccc21 | > 100 µM |  |  | > 100 µM | > 100 µM | > 100 µM | > 100 µM | > 100 µM |  |  |  |  |  |  |  |  |  |  | 
8 | Nc1ncnc2sc(Nc3ccccc3)nc12 | > 100 µM | > 100 µM | > 100 µM | > 100 µM | > 100 µM | > 100 µM |  | > 100 µM | > 100 µM |  |  |  |  |  |  |  |  |  | 
9 | O=C1c2ccoc2C(=O)c2oc(=O)ccc21 | > 59 µM | > 61.1 µM | 39.8 µM | > 78.8 µM | 14.9 µM | 22.2 µM | 15.1 µM | 11.5 µM | 31.5 µM |  |  |  |  |  |  |  |  |  | 
10 | NNC(=O)N/N=C1\CNC(=O)C(=O)C1c1nc2ccccc2s1 (centres undefined) | > 100 µM | > 100 µM | > 100 µM | > 100 µM | > 100 µM | > 100 µM | > 100 µM | > 100 µM | > 100 µM |  |  |  |  |  |  |  |  |  | 
11 | O=S(=O)(Cc1ccccc1)SCc1ccccc1 | 55.2 µM | > 100 µM | 51.2 µM | 54.1 µM | 28.8 µM | 61.6 µM | 65.2 µM | 15.5 µM | 55.8 µM |  |  |  |  |  |  |  |  |  | 
12 | O=C(CCC(=O)C1Cc2ccccc2C1=O)Nc1cccc(C(F)(F)F)c1 (centres undefined) | > 100 µM | > 100 µM | > 100 µM | > 100 µM | > 100 µM |  | > 100 µM | > 100 µM | > 100 µM |  |  |  |  |  |  |  |  |  | 
13 | O=c1c2cccc3cccc(c4n1CCCN=4)c32 |  | > 100 µM | > 100 µM | > 100 µM | > 100 µM | > 100 µM | > 100 µM | > 100 µM | > 100 µM |  |  |  |  |  |  |  |  |  | 
14 | Nc1nc(-c2ccccc2)cc(-c2cc(Cl)ccc2O)n1 | > 100 µM | 85.5 µM | > 100 µM | > 100 µM | > 100 µM | > 100 µM | > 100 µM | > 100 µM | > 100 µM |  |  |  |  |  |  |  |  |  | 
15 | COc1ccc2c3c(c(C(=O)O)oc13)C(CCC(=O)O)CC2 (centres undefined) | > 100 µM | > 100 µM | > 100 µM | > 100 µM | > 100 µM |  | > 100 µM | > 100 µM | > 100 µM |  |  |  |  |  |  |  |  |  | 
16 | C1=C(c2ccccc2)C(OC2Oc3ccccc3C=C2c2ccccc2)Oc2ccccc21 (centres undefined) | > 100 µM | > 100 µM | > 100 µM | > 100 µM | > 100 µM | > 100 µM | > 100 µM | > 100 µM | > 100 µM |  |  |  |  |  |  |  |  |  | 
17 | COc1ccc2nc(-c3ccc(O)cc3)ccc2c1 | > 100 µM | > 100 µM | > 100 µM | > 100 µM | > 100 µM | > 100 µM | > 100 µM | > 100 µM | > 100 µM |  |  |  |  |  |  |  |  |  | 
18 | C/C(CC(=O)Nc1cccc(Cl)c1C)=N\N=C(N)N | > 100 µM | > 100 µM | > 100 µM | > 100 µM | > 100 µM | > 100 µM | > 100 µM |  | > 100 µM |  |  |  |  |  |  |  |  |  | 
